Consider three compounds from patent US12427157B2, “Methods for treatment of diseases involving acidic or hypoxic diseased tissues” (Cybrexa 1, Inc., priority 2018, dated 2025).

The target of assay [1] is T1, PARP (Homo sapiens, UniProt P09874). The assay is described as follows: Enzymatic Assay 1: HT F Homogeneous PARP Inhibition Assay of cleaved compounds. Type of assay: biochemical. Details: purchased Trevigen #4690-096-K (Assay 1); #4676-096-K (Assay 2).
Assay [2] addresses T1, PARP. The assay is described as follows: Enzymatic Assay 2: HT Universal Chemiluminescent PARP Assay of cleaved compounds.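 Further: PARP reaction with activated DNA run 1 h at room temperature, product detected via streptavidin-HRP and luminescence endpoint reading on a plate reader.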
Another assay has as its system DLD-1 BRCA2−/− cells. The assay can be described thus: Growth delay assay. Type of assay: cell-based, Human. To be noted: pH 7.4, BRCA (−/−) DLD-1, 96 h. As to the method: Cells were plated in 96 well black walled-clear bottom plates (Griener), DLD-1 WT cells at 2500 cells per well, DLD-1 BRCA2−/− at 5000 cells per well, in growth media containing 10% FBS. Cells were allowed to adhere at room temperature for 60 minutes before returning to a 37 C, 5% CO2 incubator. After 24 hours, media was removed and replaced with fresh growth media containing various drug concentrations. Each drug concentration was added in triplicate. Non-drug treated controls contained growth media only. Cells were returned to the incubator. Ninety-six hours after addition of drug, cells were fixed with 4% paraformaldehyde for 20 minutes and stained with Hoechst at 1 ug/mL. The plates were imaged on a Cytation 5 auto imager (BioTek) and cells were counted using CellProfiler (http://cellprofiler.org). The percent cell growth delay was calculated and data plotted using GraphPad Prism.

[3] abbreviates: read-out: IC50 Enzymatic Assay 2, Examples cleaved per Example A (crude cleavage solution), R^8H starting materials as such.

Residues, ends and D or L forms follow the SMILES beside them. *: point of attachment. X8 = Cn1ncnc1[C@H]1c2n[nH]c(=O)c3cc(F)cc(c23)N(CNC(=O)OCC2(S*)CCC2)[C@@H]1c1ccc(F)cc1

T1 sequence (P09874 whole entry): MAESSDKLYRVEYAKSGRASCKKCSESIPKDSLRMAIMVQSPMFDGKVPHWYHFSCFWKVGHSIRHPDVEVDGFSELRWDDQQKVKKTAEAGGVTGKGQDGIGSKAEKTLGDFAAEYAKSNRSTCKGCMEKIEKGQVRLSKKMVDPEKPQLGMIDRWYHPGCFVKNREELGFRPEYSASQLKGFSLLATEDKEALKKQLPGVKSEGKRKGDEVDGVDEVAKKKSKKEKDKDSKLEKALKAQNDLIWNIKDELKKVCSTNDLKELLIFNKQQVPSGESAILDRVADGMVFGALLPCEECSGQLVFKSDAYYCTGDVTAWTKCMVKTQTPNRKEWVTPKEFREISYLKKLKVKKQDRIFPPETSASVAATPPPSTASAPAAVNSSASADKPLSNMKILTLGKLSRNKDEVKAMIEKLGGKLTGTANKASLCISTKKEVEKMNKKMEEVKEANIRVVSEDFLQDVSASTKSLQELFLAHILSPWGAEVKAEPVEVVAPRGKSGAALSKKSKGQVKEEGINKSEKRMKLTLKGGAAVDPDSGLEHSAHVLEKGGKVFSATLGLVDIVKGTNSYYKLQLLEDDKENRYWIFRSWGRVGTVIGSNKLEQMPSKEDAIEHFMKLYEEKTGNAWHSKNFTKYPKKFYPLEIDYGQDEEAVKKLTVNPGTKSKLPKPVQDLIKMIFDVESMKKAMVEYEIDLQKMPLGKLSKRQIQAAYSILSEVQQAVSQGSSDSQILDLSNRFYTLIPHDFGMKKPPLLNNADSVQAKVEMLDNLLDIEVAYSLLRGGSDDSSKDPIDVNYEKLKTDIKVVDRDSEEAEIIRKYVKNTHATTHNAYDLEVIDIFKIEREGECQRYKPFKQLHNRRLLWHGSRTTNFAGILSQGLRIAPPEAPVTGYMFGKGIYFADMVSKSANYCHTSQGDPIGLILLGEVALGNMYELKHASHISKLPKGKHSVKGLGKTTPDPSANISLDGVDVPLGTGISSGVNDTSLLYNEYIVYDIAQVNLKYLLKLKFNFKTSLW

For orientation: IC50 means the concentration that gives 50% inhibition. As for `NC(=O)c1cccc2[nH]c(-c3ccc(CO)cc3)nc12` [R^8H-1, 2-[4-(hydroxymethyl)phenyl]-1H-benzimidazole-4-carboxamide, reference compound], the IC50 at PARP [1] (Examples cleaved per Example A (crude cleavage solution); R^8H starting materials as such; 1 uM NAD; read-out: IC50 Enzymatic Assay 1) came out at 0.0968 µM; at PARP [2] it was 0.0064 µM.

`CC(C)C[C@H](NC(=O)[C@H](Cc1ccc(O)cc1)NC(=O)[C@H](C)NC(=O)[C@H](CCCNC(=N)N)NC(=O)[C@H](Cc1c[nH]c2ccccc12)NC(=O)[C@@H]1CCCN1C(=O)[C@H](CC(N)=O)NC(=O)[C@H](CCC(N)=O)NC(=O)[C@H](CC(=O)O)NC(=O)[C@H](CC(=O)O)NC(=O)[C@H](C)N)C(=O)N[C@@H](CC(=O)O)C(=O)N[C@@H](CC(C)C)C(=O)N[C@@H](CC(C)C)C(=O)N[C@@H](Cc1ccccc1)C(=O)N1CCC[C@H]1C(=O)N[C@H](C(=O)N[C@@H](CC(=O)O)C(=O)N[C@H](C(=O)N[C@@H](CC(C)C)C(=O)N[C@@H](CC(C)C)C(=O)N[C@@H](CC(C)C)C(=O)N[C@@H](CC(=O)O)C(=O)N[C@@H](CC(C)C)C(=O)N[C@@H](CC(C)C)C(=O)N[C@@H](Cc1c[nH]c2ccccc12)C(=O)N[C@@H](CC(=O)O)C(=O)N[C@@H](C)C(=O)N[C@@H](CC(=O)O)C(=O)N[C@@H](CCC(=O)O)C(=O)N[C@@H](CSS[C@H](C)COC(=O)OCc1ccc(-c2nc3c(C(N)=O)cccc3[nH]2)cc1)C(=O)NCC(=O)O)[C@@H](C)O)[C@@H](C)O` [Example 7]: the figures for the IC50 on PARP [1] (read-out: IC50 Enzymatic Assay 1; Examples cleaved per Example A (crude cleavage solution); R^8H starting materials as such; 1 uM NAD) and on PARP [2] (setting [3]) were 0.111 µM and 0.00645 µM, respectively.

Regarding `CC[C@H](C)[C@H](NC(=O)[C@@H]1CCCN1C(=O)[C@H](CC(N)=O)NC(=O)[C@H](CCC(N)=O)NC(=O)[C@H](CCC(=O)O)NC(=O)[C@H](C)N)C(=O)N[C@@H](Cc1ccc(O)cc1)C(=O)N[C@@H](Cc1c[nH]c2ccccc12)C(=O)N[C@@H](C)C(=O)N[C@@H](CCCNC(=N)N)C(=O)N[C@@H](Cc1ccc(O)cc1)C(=O)N[C@@H](C)C(=O)N[C@@H](CC(=O)O)C(=O)N[C@@H](Cc1c[nH]c2ccccc12)C(=O)N[C@@H](CC(C)C)C(=O)N[C@@H](Cc1ccccc1)C(=O)N[C@H](C(=O)N[C@H](C(=O)N1CCC[C@H]1C(=O)N[C@@H](CC(C)C)C(=O)N[C@@H](CC(C)C)C(=O)N[C@@H](CC(C)C)C(=O)N[C@@H](CC(C)C)C(=O)N[C@@H](CC(=O)O)C(=O)N[C@@H](CC(C)C)C(=O)N[C@@H](C)C(=O)N[C@@H](CC(C)C)C(=O)N[C@@H](CC(C)C)C(=O)N[C@H](C(=O)N[C@@H](CC(=O)O)C(=O)N[C@@H](C)C(=O)N[C@@H](CC(=O)O)C(=O)N[C@@H](CCC(=O)O)C(=O)N[C@@H](CSSC1(COC(=O)NCN2c3cc(F)cc4c(=O)[nH]nc(c34)[C@H](c3ncnn3C)[C@H]2c2ccc(F)cc2)CCC1)C(=O)NCC(=O)O)C(C)C)[C@@H](C)O)[C@@H](C)O` [Example 39] (H-AEQNPIYWARYADWLFTTPLLLLDLALLVDADEC(X8)G-OH; N-terminus and C-terminus assumed), the IC50 in the assay on DLD-1 BRCA2−/− cells came to 104 nM; at PARP [2] (setting [3]), 0.003 µM.
